Reference: patent US20140171465A1, “Methods For Increasing Reticulocyte Hemoglobin Content” (FibroGen, Inc., priority 2011, published 2014)

Columns and labels:
Type in all cases: in vivo
[1] = tested on: human subjects with stage 3 and stage 4 chronic kidney disease; assay: Reticulocyte hemoglobin content (CHr) in human subjects with stage 3 or stage 4 chronic kidney disease, 17 weeks
Protocol: The effect of compound of the present invention on CHr was determined in human subjects with stage 3 and stage 4 chronic kidney disease patients (eGFR<60 ml/min) as follows. Subjects with stage 3 or stage 4 chronic kidney disease not receiving dialysis were administered Compound A at either approximately 1.2 mg/kg twice weekly or 70 mg fixed dose thrice weekly for a period of 17 weeks. Dose adjustments were permitted from week 5 onward to correct and maintain subjects to a target hemoglobin range; however, doses were not allowed to exceed 2.5 mg/kg per dose. CHr values were measured at week 9 and week 17.

[2] = tested on: human patients; assay: Safety and efficacy of tested doses in human patients; details: doses between 0.7 and 2.5 mg/kg administered TIW, BIW, or QW
Source text: In a particular embodiment, the present invention provides an efficacious therapeutic compound for treating a subject having reduced reticulocyte hemoglobin content. Specifically, the invention comprises the compound [(4-hydroxy-1-methyl-7-phenoxy-isoquinoline-3-carbonyl)-amino]-acetic acid for use in methods of increasing reticulocyte hemoglobin content (CHr) in a subject.

[3] = tested on: human subjects with end-stage renal disease; assay: Mean hemoglobin levels in human subjects with end-stage renal disease, 6 weeks TIW; details: six week treatment period; Compound A 1.5 mg/kg and 2.0 mg/kg TIW; epoetin alfa TIW
[4] = tested on: human subjects with end-stage renal disease; assay: Reticulocyte hemoglobin content (CHr) in human subjects with end-stage renal disease, 6 weeks TIW; details: for Mean Change (pg) from Baseline CHr at Day 43 (6 weeks) of Treatment: ESRD on hemodialysis, no IV iron
Protocol: The effect of a compound of the present invention on CHr was determined in human subjects with end-stage renal disease as follows. In the current studies, subjects had been receiving stable maintenance hemodialysis for at least 4 months prior to the initiation of the present study. Additionally, subjects had been maintained on standard of care stable doses of epoetin alfa for the treatment of anemia prior to initiation of the present study.
In order to examine differences in the CHr response in subjects treated with compound of the invention compared to the CHr response in subject treated with epoetin alpha (the current standard of care), all IV iron supplementation was halted two weeks prior to treatment initiation. Administration of oral iron was allowed.
[…] Baseline CHr levels were determined prior to treatment (mean of two screening period measurements with the Day 1 measurement). CHr levels were measured weekly throughout the six-week study period.
In contrast, CHr decreased in subjects treated with epoetin alfa during the same time period.

Cc1nc(C(=O)NCC(=O)O)c(O)c2ccc(Oc3ccccc3)cc12 [Compound A, [(4-hydroxy-1-methyl-7-phenoxy-isoquinoline-3-carbonyl)-amino]-acetic acid]
maintenance of mean CHr (FIG. 3B) ([1]; 70 mg fixed dose TIW, weeks 9 to 17): maintenance of mean CHr from 9 to 17 weeks
mean CHr over time (FIG. 3A, 3B) ([1]; approximately 1.2 mg/kg BIW or 70 mg TIW, 17 weeks, CKD stage 3/4 not on dialysis): mean CHr increased over time
safety and efficacy of tested doses [2]: safe, useful, and effective
changes in mean hemoglobin levels (FIG. 2) [3]: time-dependent increase in mean hemoglobin levels
Mean Change (pg) from Baseline CHr at Day 43 (6 weeks) of Treatment ([4]; 1 mg/kg TIW, N = 10): +0.41 pg
mean increase in CHr over baseline after 6 weeks of treatment ([4]; 1.3 mg/kg TIW (N=5)): 0.85 pg/cell
Mean Change (pg) from Baseline CHr at Day 43 (6 weeks) of Treatment ([4]; 1.5 mg/kg TIW, N = 9): +0.10 pg
mean increase in CHr over baseline after 6 weeks of treatment ([4]; 1.8 mg/kg TIW (N=5)): 0.82 pg/cell
Mean Change (pg) from Baseline CHr at Day 43 (6 weeks) of Treatment ([4]; 2.0 mg/kg TIW, N = 9): +0.44 pg
change from baseline of the mean CHr over time (FIG. 1) ([4]; six week treatment period, Compound A 1.0, 1.5 and 2.0 mg/kg TIW, epoetin alfa TIW): increase in mean CHr over time
